Where two headings read alike, the source gives them in different places.
Experiments:
[1] = target: FAK enzyme (catalytic domain, amino acids 411-686) (Homo sapiens, UniProt Q05397); assay: biochemical
[2] = target: N-terminally GST-fused purified FAK enzyme (Homo sapiens, UniProt Q05397); assay: biochemical
Method: Binding parameters of compounds were determined using a Biacore™ S51 sensor. An anti-GST antibody was immobilized onto a CM5 chip by primary amine-coupling in accordance with the manufacturer's recommendations.
Concentration series' of the test compounds were injected over the spots at 25° C.
After the injection cycle of a compound the chip surface was regenerated with 10 mM glycine-HCl, pH2.2 before capturing the enzyme again.

[3] = target: T1, VEGFR3 cytoplasmic domain (Homo sapiens, UniProt P35916, DEL949-1002); assay: biochemical
T1 construct: VEGFR3 cytoplasmic domain (amino acids 798-1298) was purchased as N-terminal GST-fusion protein; purchased
T1 sequence (P35916 with tags, fused parts or gaps DEL949-1002): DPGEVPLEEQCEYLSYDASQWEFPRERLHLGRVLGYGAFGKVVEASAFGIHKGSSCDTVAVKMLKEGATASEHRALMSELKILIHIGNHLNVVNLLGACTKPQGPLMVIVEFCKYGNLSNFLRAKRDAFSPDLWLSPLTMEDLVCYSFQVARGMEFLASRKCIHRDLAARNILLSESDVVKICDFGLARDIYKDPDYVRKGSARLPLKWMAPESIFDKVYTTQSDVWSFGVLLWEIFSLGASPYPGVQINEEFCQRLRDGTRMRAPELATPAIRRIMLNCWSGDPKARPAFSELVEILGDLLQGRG

MDA-231-LNA cells = assay: cells; conditions: 72 h
[4] = target: VEGFR3 cytoplasmic domain (Homo sapiens, UniProt P35916); assay: biochemical
Chain of VEGFR3 cytoplasmic domain (Homo sapiens, UniProt P35916) (P35916 other isoform, or with tags, fused parts or gaps): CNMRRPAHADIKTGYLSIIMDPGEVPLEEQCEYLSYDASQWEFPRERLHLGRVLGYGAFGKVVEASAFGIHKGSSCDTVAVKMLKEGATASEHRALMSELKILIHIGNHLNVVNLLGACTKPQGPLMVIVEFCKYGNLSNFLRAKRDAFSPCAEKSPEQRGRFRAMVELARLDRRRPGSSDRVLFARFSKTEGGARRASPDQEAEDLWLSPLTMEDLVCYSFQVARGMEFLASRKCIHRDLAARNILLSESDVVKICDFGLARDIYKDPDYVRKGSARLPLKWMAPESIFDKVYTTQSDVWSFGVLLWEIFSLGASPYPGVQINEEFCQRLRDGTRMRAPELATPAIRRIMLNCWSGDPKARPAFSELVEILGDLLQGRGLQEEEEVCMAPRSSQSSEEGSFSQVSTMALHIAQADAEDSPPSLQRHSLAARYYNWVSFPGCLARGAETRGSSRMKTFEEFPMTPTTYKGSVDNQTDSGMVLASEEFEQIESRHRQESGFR

[5] = target: T2, Phospho VEGFR3 (Flt4) in HMVEC-dLyAD cells (Homo sapiens, UniProt P35916); assay: Flt4 Phospho ELISA assay; type: cell-based
T2 construct: host or cells: HMVEC-dLyAD (adult human dermal lymphatic microvascular endothelial cells)
T2 sequence (P35916 25-1363): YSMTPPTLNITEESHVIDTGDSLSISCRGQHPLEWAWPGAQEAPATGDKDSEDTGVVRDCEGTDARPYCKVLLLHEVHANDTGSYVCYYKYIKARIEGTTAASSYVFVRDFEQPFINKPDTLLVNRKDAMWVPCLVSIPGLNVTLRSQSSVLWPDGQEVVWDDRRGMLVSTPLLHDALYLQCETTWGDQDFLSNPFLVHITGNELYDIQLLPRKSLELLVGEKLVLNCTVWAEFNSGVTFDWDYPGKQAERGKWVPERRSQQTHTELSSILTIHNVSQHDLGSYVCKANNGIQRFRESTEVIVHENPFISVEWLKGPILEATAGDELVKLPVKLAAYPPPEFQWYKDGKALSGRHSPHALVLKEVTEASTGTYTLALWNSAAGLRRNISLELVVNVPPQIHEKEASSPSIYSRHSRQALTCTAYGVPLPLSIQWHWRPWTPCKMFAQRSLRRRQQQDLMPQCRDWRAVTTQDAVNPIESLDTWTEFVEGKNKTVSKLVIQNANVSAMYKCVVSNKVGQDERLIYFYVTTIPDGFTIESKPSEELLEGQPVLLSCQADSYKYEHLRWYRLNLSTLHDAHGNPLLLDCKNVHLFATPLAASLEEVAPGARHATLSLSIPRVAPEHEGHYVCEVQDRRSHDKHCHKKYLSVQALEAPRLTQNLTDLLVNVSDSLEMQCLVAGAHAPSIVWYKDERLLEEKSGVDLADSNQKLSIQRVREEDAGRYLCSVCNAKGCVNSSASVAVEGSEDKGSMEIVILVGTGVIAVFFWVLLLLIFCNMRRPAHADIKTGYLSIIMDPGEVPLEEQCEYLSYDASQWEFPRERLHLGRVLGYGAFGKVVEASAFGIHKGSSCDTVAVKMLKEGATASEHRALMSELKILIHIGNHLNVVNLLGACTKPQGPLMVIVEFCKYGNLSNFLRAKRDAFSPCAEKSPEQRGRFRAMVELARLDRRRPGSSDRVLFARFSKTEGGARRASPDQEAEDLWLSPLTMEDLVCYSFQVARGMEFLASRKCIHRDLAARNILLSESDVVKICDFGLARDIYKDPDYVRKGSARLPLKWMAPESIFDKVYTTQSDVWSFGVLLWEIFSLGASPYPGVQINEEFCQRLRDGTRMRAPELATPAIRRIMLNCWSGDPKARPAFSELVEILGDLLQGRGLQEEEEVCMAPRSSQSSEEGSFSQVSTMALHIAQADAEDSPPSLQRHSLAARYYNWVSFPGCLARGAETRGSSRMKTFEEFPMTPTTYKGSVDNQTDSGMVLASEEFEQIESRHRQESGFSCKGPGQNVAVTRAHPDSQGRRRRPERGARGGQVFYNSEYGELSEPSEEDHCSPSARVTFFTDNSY
Method: The ability of compounds of the invention to inhibit VEGFR3 within cells can be assessed with an ELISA type assay.
The plates were covered and incubated at room temperature overnight.
300 μL of Blocking buffer (5% v/v Tween 20, 5% w/v sucrose in PBS) was then added to wells and plate incubated for 2 hours at room temperature. Blocking solution is flicked out and plates washed three times and tapped dry.
Compound dilution series were prepared in Endogro basal (Cat # SCME-BM, Millipore)+0.1% BSA (Cat#A8412, Sigma) with constant 0.1% DMSO concentration. 439 μL of sample or vehicle control was added to the cell monolayers.
130 μL of Lysis buffer added to wells and cell lysate harvested and transferred to tubes and stored on ice.
The plates were then washed three times in wash buffer as described above and tapped dry. […]
Total VEGFR3 levels were quantified using a Multiskan Ascent plate reader and Ascent software fitted with 450 nm filter. […]
Phospho VEGFR3 levels were quantified using a Multiscan ascent plate reader and ascent software fitted with 450 nm filter.
where SRP is the Sample Relative Phospho level, SP is Phospho VEGFR3 reading and ST is Total VEGFR3 reading.
Percent inhibition (% I) for each lysate relative to vehicle control (VEGF-C stimulated) is then calculated according to the following formula:
where SRP is the Sample Relative Phospho level as calculated above. […]

[6] = test system: taxane-sensitive (SKOV3ip1 and HeyA8) and taxane-resistant (HeyA8-MDR) ovarian cancer cell lines; conditions: in vitro; cited from earlier work
[7] = test system: HeyA8, SKOV3ip1, and HeyA8-MDR models; conditions: cited from earlier work

Chain of FAK enzyme (catalytic domain, amino acids 411-686) (Q05397 411-686, species assumed): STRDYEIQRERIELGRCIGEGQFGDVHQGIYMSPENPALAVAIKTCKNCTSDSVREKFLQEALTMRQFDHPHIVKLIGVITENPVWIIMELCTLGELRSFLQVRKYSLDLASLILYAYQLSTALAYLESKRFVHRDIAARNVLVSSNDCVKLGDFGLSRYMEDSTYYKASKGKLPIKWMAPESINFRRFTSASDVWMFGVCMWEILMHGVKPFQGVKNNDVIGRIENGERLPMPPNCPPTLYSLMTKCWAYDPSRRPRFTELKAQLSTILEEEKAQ
Chain of N-terminally GST-fused purified FAK enzyme (Q05397 whole entry, the tested form may be a part): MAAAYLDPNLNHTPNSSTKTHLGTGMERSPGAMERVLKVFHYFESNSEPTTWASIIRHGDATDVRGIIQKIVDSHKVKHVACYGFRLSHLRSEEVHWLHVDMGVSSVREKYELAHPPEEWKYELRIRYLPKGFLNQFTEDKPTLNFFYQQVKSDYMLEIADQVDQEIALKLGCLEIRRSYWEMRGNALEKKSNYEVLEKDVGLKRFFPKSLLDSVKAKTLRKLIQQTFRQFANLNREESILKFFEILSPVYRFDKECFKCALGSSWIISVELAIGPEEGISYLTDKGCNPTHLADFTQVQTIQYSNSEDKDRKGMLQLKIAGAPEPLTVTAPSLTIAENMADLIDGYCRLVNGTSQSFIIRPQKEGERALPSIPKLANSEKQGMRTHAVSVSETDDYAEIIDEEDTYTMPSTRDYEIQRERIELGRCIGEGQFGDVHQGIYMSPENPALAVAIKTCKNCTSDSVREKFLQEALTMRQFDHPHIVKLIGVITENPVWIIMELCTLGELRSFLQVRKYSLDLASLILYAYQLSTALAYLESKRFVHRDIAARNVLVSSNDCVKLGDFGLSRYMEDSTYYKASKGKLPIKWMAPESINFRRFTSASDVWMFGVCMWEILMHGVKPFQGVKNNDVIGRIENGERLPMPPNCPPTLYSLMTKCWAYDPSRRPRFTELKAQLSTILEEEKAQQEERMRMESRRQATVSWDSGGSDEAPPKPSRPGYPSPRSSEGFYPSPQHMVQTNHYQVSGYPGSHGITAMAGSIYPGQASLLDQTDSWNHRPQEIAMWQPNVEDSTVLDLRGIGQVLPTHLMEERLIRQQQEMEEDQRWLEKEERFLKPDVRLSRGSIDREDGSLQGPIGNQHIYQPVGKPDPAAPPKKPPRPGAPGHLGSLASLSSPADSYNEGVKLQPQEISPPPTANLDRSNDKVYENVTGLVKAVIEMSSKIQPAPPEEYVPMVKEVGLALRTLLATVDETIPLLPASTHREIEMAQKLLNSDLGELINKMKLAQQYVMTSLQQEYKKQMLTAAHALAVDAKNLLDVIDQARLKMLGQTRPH

`NC(=O)Cc1ccccc1CCc1nc(Nc2ccc(N3CCNCC3)cc2)ncc1C(F)(F)F` [Compound 1, 2-(2-(2-(2-((4-(piperazin-1-yl)phenyl)amino)-5-(trifluoromethyl)pyrimidin-4-yl)ethyl)phenyl)acetamide] showed an IC50 [1] of 2.1 nM and a Kd [2] of 0.49 nM.
Work on `CN1CCN(c2ccc(Nc3ncc(C(F)(F)F)c(CCc4cccc(C(N)=O)c4)n3)cc2)CC1` [Compound 2, 3-(2-(2-((4-(4-Methylpiperazin-1-yl)phenyl)amino)-5-(trifluoromethyl)pyrimidin-4-yl)ethyl)benzamide] yielded an IC50 ([3]; modified form (*): N-terminal Hexa-His-fusion protein, amino acids 818-1177 lacking 949-1002, read-out: IC50) of 120 nM, an IC50 (MDA-231-LNA cells) of 3.21 µM and an IC50 [1] of 2.5 nM. The Kd [2] was 1.5 nM.
`CN1CCN(c2ccc(Nc3ncc(C(F)(F)F)c(CCc4ccccc4CC(N)=O)n3)cc2)CC1` [Compound 3] gave an IC50 [1] of 1.9 nM and a Kd [2] of 0.91 nM.
Work on `NC(=O)Cc1ccccc1CCc1nc(Nc2ccc(C3CCCNC3)cc2)ncc1C(F)(F)F` (centres unmarked) [Compound 4, 2-(2-(2-(2-((4-(Piperidin-3-yl)phenyl)amino)-5-(trifluoromethyl)pyrimidin-4-yl)ethyl)phenyl)acetamide] yielded an IC50 [1] of 1.5 nM and a Kd [2] of 0.73 nM.
`CN1CCN(c2cccc(Nc3ncc(C(F)(F)F)c(CCc4cccc(C(N)=O)c4)n3)c2)CC1` [Compound 6, 3-(2-(2-((3-(4-Methylpiperazin-1-yl)phenyl)amino)-5-(trifluoromethyl)pyrimidin-4-yl)ethyl)benzamide] showed an IC50 [4] of 52 nM, an IC50 (MDA-231-LNA cells) of 3.91 µM and an IC50 [1] of 4.2 nM. It also gave a Kd [2] of 6.3 nM.
`NC(=O)Cc1ccccc1CCc1nc(Nc2ccc(C3CCCCN3)cc2)ncc1C(F)(F)F` (centres unmarked) [Compound 8, 2-(2-(2-(2-((4-(Piperidin-2-yl)phenyl)amino)-5-(trifluoromethyl)pyrimidin-4-yl)ethyl)phenyl)acetamide] gave an IC50 [1] of 6.1 nM and a Kd [2] of 1 nM.
`CN1CCCCC1c1ccc(Nc2ncc(C(F)(F)F)c(CCc3ccccc3CC(N)=O)n2)cc1` (centres unmarked) [Compound 9] showed an IC50 [1] of 7 nM and a Kd [2] of 7 nM.
With `NC(=O)Cc1ccccc1CCc1nc(Nc2ccc(C3CCNCC3)cc2)ncc1C(F)(F)F` [Compound 11, 2-(2-(2-(2-((4-(Piperidin-4-yl)phenyl)amino)-5-(trifluoromethyl)pyrimidin-4-yl)ethyl)phenyl)acetamide] the IC50 [1] was 3 nM and the Kd [2] was 0.61 nM.
For `CC(C(N)=O)c1ccccc1CCc1nc(Nc2ccc(C3CCNCC3)cc2)ncc1C(F)(F)F` (centres unmarked) [Compound 12, 2-(2-(2-(2-((4-(Piperidin-4-yl)phenyl)amino)-5-(trifluoromethyl)pyrimidin-4-yl)ethyl)phenyl)propanamide], the IC50 [1] was 6.3 nM and the Kd [2] was 0.92 nM.
Molecule `CNC(=O)Cc1ccccc1CCc1nc(Nc2ccc(N3CCNCC3)cc2)ncc1C(F)(F)F` [Compound 14, N-Methyl-2-(2-(2-(2-((4-(piperazin-1-yl)phenyl)amino)-5-(trifluoromethyl)pyrimidin-4-yl)ethyl)phenyl)acetamide] has an IC50 [4] of 101 nM, an IC50 (MDA-231-LNA cells) of 4.49 µM and an IC50 [1] of 21 nM. It also gave a Kd [2] of 6.1 nM.
In the case of `O=C1NCc2cccc(CCc3nc(Nc4ccc(N5CCNCC5)cc4)ncc3C(F)(F)F)c21` [Compound 15, 7-(2-(2-((4-(piperazin-1-yl)phenyl)amino)-5-(trifluoromethyl)pyrimidin-4-yl)ethyl)isoindolin-1-one], the IC50 ([4]; read-out: IC50) is reported as 37 nM, the IC50 (MDA-231-LNA cells) is reported as 2.37 µM and the IC50 [1] is reported as 18 nM. It also gave a Kd [2] of 5 nM.
`CN1CCN(c2cccc(Nc3ncc(C(F)(F)F)c(CCc4ccccc4CC(N)=O)n3)c2)CC1` [Compound 17, 2-(2-(2-(2-((3-(4-Methylpiperazin-1-yl)phenyl)amino)-5-(trifluoromethyl)pyrimidin-4-yl)ethyl)phenyl)acetamide] gave an IC50 [4] of 31 nM, an IC50 [5] of 44 nM and an IC50 (MDA-231-LNA cells) of 3.51 µM. It also gave an IC50 [1] of 3.4 nM and a Kd [2] of 3.5 nM.
Work on `CNC(=O)Cc1ccccc1CCc1nc(Nc2cccc(N3CCN(C)CC3)c2)ncc1C(F)(F)F` [Compound 18] yielded an IC50 [4] of 664 nM, an IC50 (MDA-231-LNA cells) of over 5 µM and an IC50 [1] of 13 nM. The Kd [2] was 13 nM.
In the case of `Cc1ccc(CCc2nc(Nc3ccc(N4CCNCC4)cc3)ncc2C(F)(F)F)cc1C(N)=O` [Compound 19, 2-Methyl-5-(2-(2-((4-(piperazin-1-yl)phenyl)amino)-5-(trifluoromethyl)pyrimidin-4-yl)ethyl)benzamide], the IC50 [4] is reported as 37 nM, the IC50 (MDA-231-LNA cells) is reported as 1.49 µM and the IC50 [1] is reported as 7.7 nM. For the same molecule, the Kd [2] was 7.8 nM.
For `NC(=O)Cc1ccccc1CCc1nc(Nc2ccc(N3CCC(N)CC3)cc2)ncc1C(F)(F)F` [Compound 20, 2-(2-(2-(2-((4-(4-Aminopiperidin-1-yl)phenyl)amino)-5-(trifluoromethyl)pyrimidin-4-yl)ethyl)phenyl)acetamide], the IC50 [1] was 0.81 nM and the Kd [2] was 0.63 nM.
For `NC(=O)Cc1ccccc1CCc1nc(Nc2ccc3c(c2)CCNC3)ncc1C(F)(F)F` [Compound 21, 2-(2-(2-(2-((1,2,3,4-Tetrahydroisoquinolin-6-yl)amino)-5-(trifluoromethyl)pyrimidin-4-yl)ethyl)phenyl)acetamide], the IC50 [1] was 2.4 nM and the Kd [2] was 0.44 nM.
Molecule `NC(=O)Cc1ccccc1CCc1nc(Nc2ccc(C3CNCCO3)cc2)ncc1C(F)(F)F` (centres unmarked) [Compound 22, 2-(2-(2-(2-((4-(morpholin-2-yl)phenyl)amino)-5-(trifluoromethyl)pyrimidin-4-yl)ethyl)phenyl)acetamide] has an IC50 [1] of 2.8 nM and a Kd [2] of 0.99 nM.
`NC(=O)Cc1ccccc1CCc1nc(Nc2ccc(CN3CCNCC3)cc2)ncc1C(F)(F)F` [Compound 25, 2-(2-(2-(2-((4-(piperazin-1-ylmethyl)phenyl)amino)-5-(trifluoromethyl)pyrimidin-4-yl)ethyl)phenyl)acetamide] showed an IC50 (MDA-231-LNA cells) of 2.89 µM.
Molecule `NC(=O)Cc1nccnc1CCc1nc(Nc2ccc(C3CCNCC3)cc2)ncc1C(F)(F)F` [Compound 26, 2-(3-(2-(2-((4-(Piperidin-4-yl)phenyl)amino)-5-(trifluoromethyl)pyrimidin-4-yl)ethyl)pyrazin-2-yl)acetamide] has an IC50 [1] of 20 nM and a Kd [2] of 14 nM.
Work on `NC(=O)Cc1cncnc1CCc1nc(Nc2ccc(C3CCNCC3)cc2)ncc1C(F)(F)F` [Compound 29, 2-(4-(2-(2-((4-(Piperidin-4-yl)phenyl)amino)-5-(trifluoromethyl)pyrimidin-4-yl)ethyl)pyrimidin-5-yl)acetamide] yielded an IC50 [1] of 11 nM and a Kd [2] of 12.1 nM.
Work on `CCN1CCC(c2ccc(Nc3ncc(C(F)(F)F)c(CCc4ccccc4CC(N)=O)n3)cc2)CC1` [Compound 31, 2-(2-(2-(2-((4-(1-Ethylpiperidin-4-yl)phenyl)amino)-5-(trifluoromethyl)pyrimidin-4-yl)ethyl)phenyl)acetamide] yielded a Kd [2] of 1 nM.
`CN1CCC(c2ccc(Nc3ncc(C(F)(F)F)c(CCc4cc(C(N)=O)ccn4)n3)cc2)CC1` [Compound 34, 2-(2-(2-((4-(1-Methylpiperidin-4-yl)phenyl)amino)-5-(trifluoromethyl)pyrimidin-4-yl)ethyl)isonicotinamide] showed an IC50 [3] of 184 nM, an IC50 (MDA-231-LNA cells) of 7.85 µM and an IC50 [1] of 5.7 nM. It also gave a Kd [2] of 5 nM.
`CN1CCN(Cc2ccc(Nc3ncc(C(F)(F)F)c(CCc4ccccc4CC(N)=O)n3)cc2)CC1` [Compound 36, 2-(2-(2-(2-((4-((4-Methylpiperazin-1-yl)methyl)phenyl)amino)-5-(trifluoromethyl)pyrimidin-4-yl)ethyl)phenyl)acetamide] gave an IC50 [4] of 16 nM, an IC50 [5] of 169 nM and an IC50 (MDA-231-LNA cells) of 5.62 µM. For the same molecule, the IC50 [1] was 2.3 nM and the Kd [2] was 0.48 nM.
For `NC(=O)c1cccc(CCc2nc(Nc3ccc(CN4CCNCC4)cc3)ncc2C(F)(F)F)c1` [Compound 37, 3-(2-(2-((4-(piperazin-1-ylmethyl)phenyl)amino)-5-(trifluoromethyl)pyrimidin-4-yl)ethyl)benzamide], the IC50 [4] was 254 nM, the IC50 (MDA-231-LNA cells) was 2.79 µM and the IC50 [1] was 15 nM.
For `CNC(=O)c1ccccc1Nc1nc(Nc2ccc(N3CCOCC3)cc2OC)ncc1Cl` [TAE226], the “phosphorylation of FAK at both Y397 and Y861 sites” value [6] is listed as “inhibited”, the “reduced tumour burden compared with vehicle-treated controls” value ([7]; TAE226 alone, HeyA8, SKOV3ip1, HeyA8-MDR models) is listed as 46-64% and the tumour burden reduction ([7]; concomitant administration of TAE226 and docetaxel, all three models) is listed as 85-97%. For the same molecule, the “survival in tumour-bearing mice” value ([7]; in combination with docetaxel) was “significantly prolonged survival”.

Source: patent publication US20130324532A1 (priority 2011, published 2013)
